According to patent publication US9993464B2 (SANOFI, priority 2011, dated 2018):
Values joined by “and” are separate entries in the source; they are usually repeats but may differ in a detail not shown here. Identical values can stand only once. Like-named read-outs stand apart in the source and are kept apart here.

Tests used:
[1] = test system: prothrombin fragments 1+2; conditions: dose-ranging clinical trial; highest dose regimen; cited from earlier work
models of thrombosis [2] = conditions: porcine; cited from earlier work
models of thrombosis [3] = conditions: canine; cited from earlier work
factor Xa = molecular target: T1, factor Xa (Homo sapiens, UniProt P00742); conditions: patients with stable coronary artery disease; cited from earlier work
T1 construct: host or cells: blood of patients (in vivo, clinical trial)

[4] = Level of impurities in dependency on pH and storage time (HPLC), Example 8; type: physicochemical; conditions: 40° C./75% RH
Method: The appropriate pH value was adjusted by using sodium hydroxide solution (1 M sodium hydroxide) or diluted hydrochloric acid (1 M hydrochloric acid). The prepared vials were autoclaved one time and were stored at 40° C. and 75% RH (relative humidity).

models of thrombosis [5] = conditions: rodent; cited from earlier work
[6] = Level of impurities in dependency on Otamixaban concentration and autoclaving (HPLC), Example 7; type: physicochemical; conditions: autoclaving
Description: The appropriate pH value was adjusted by using sodium hydroxide solution (1 M sodium hydroxide) or diluted hydrochloric acid (1 M hydrochloric acid).

[7] = Level of impurities in dependency on pH and repeated autoclaving (HPLC), Example 6; type: physicochemical
Method: The appropriate pH value was adjusted by using sodium hydroxide solution (1 M sodium hydroxide) or diluted hydrochloric acid (1 M hydrochloric acid). […] HP Zorbax SB-C18, 3.5 μm • Column material: stainless steel • Column length: 150 mm • Column internal diameter: 4.6 mm • Equilibration of the column: Column must be rinsed with mobile phase B (% B=25) for at least 60 minutes at a flow rate of 1 mL/min prior to sample injection. • Storage of the column: Column can be stored in acetonitrile/water=20/80 (v/v) Mobile Phase A […] The mobile phase was filtered through a 1.5 μm filter. Typically, add 500 mL of mobile phase A to 500 mL of acetonitrile. Mix and degas. [table] Procedure • Flow rate: 1 mL/min • Injection volume: 40 μl • Auto sampler temperature: Set autosampler temperature at +12° C. • Column temperature: […]

acute coronary syndrome = conditions: humans; cited from earlier work
[8] = pH 2.5, number of autoclaving 0
[9] = pH 2.5, number of autoclaving 1
[10] = pH 3.2, number of autoclaving 0
[11] = pH 3.2, number of autoclaving 1
[12] = pH 3.2, number of autoclaving 3
[13] = pH 3.5, number of autoclaving 0
[14] = pH 3.5, number of autoclaving 1
[15] = pH 3.7, number of autoclaving 0
[16] = pH 3.7, number of autoclaving 1
[17] = pH 3.7, number of autoclaving 3
[18] = pH 4.0, number of autoclaving 0
[19] = pH 4.0, number of autoclaving 1
[20] = pH 4.2, number of autoclaving 0
[21] = pH 4.5, number of autoclaving 0
[22] = pH 4.5, number of autoclaving 1
[23] = pH 4.7, number of autoclaving 0
[24] = pH 4.7, number of autoclaving 2

T1 sequence (P00742 235-488 limits assumed): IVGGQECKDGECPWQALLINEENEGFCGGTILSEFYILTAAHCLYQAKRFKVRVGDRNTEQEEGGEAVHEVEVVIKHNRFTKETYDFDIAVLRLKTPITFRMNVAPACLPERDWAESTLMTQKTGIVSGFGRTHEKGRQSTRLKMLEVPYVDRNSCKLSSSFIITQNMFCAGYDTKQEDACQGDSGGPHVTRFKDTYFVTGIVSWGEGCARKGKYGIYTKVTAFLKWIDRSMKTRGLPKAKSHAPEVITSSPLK
T1 sequence (P00742 41-179 partner limits assumed): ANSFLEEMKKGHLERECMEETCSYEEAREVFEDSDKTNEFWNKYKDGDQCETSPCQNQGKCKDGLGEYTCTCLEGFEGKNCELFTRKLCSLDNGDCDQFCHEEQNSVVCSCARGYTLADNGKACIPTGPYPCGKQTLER

COC(=O)[C@H](Cc1cccc(C(=N)N)c1)[C@@H](C)NC(=O)c1ccc(-c2cc[n+]([O-])cc2)cc1 (mixture of isomers) [Otamixaban, Methyl (2R,3R)-2-{3-[amino(imino)methyl]benzyl}-3-{[4-(1-oxidopyridin-4-yl)benzoyl]amino}butanoate]
reduction of prothrombin fragments 1+2 versus unfractionated heparin [1]: reduced prothrombin fragments 1+2 significantly more than unfractionated heparin
efficacy in models of thrombosis (models of thrombosis [2]): highly efficacious
efficacy in models of thrombosis (models of thrombosis [3]): highly efficacious
factor Xa inhibition in patients (factor Xa): dose-dependent, rapid direct factor Xa inhibition
Increase of Formula II (carbamimidoyl-benzyl butyric acid) ([4]; pH 2.5, storage time 0 months): 0.33%
Increase of Formula III (carbamoyl-benzyl butyric acid methyl ester) ([4]; pH 2.5, storage time 0 months): 0.71%
Increase of Formula III (carbamoyl-benzyl butyric acid methyl ester) ([4]; pH 2.5, storage time 1 months): 0.77%
Increase of Formula III (carbamoyl-benzyl butyric acid methyl ester) ([4]; pH 2.5, storage time 3 months): 0.86%
Increase of Formula II (carbamimidoyl-benzyl butyric acid) ([4]; pH 2.5, storage time 6 months): 7.10%
Increase of Formula III (carbamoyl-benzyl butyric acid methyl ester) ([4]; pH 2.5, storage time 6 months): 0.98%
Increase of Formula II (carbamimidoyl-benzyl butyric acid) ([4]; pH 3.0, storage time 0 months): 0.18%
Increase of Formula III (carbamoyl-benzyl butyric acid methyl ester) ([4]; pH 3.0, storage time 0 months): 0.74%
Increase of Formula II (carbamimidoyl-benzyl butyric acid) ([4]; pH 3.0, storage time 1 months): 0.58%
Increase of Formula III (carbamoyl-benzyl butyric acid methyl ester) ([4]; pH 3.0, storage time 1 months): 0.82%
Increase of Formula III (carbamoyl-benzyl butyric acid methyl ester) ([4]; pH 3.0, storage time 3 months): 0.96%
Increase of Formula II (carbamimidoyl-benzyl butyric acid) ([4]; pH 3.2, storage time 0 months): 0.15%
Increase of Formula III (carbamoyl-benzyl butyric acid methyl ester) ([4]; pH 3.2, storage time 0 months): 0.76%
Increase of Formula II (carbamimidoyl-benzyl butyric acid) ([4]; pH 3.2, storage time 1 months): 0.41%
Increase of Formula III (carbamoyl-benzyl butyric acid methyl ester) ([4]; pH 3.2, storage time 1 months): 0.85%
Increase of Formula II (carbamimidoyl-benzyl butyric acid) ([4]; pH 3.2, storage time 3 months): 0.93%
Increase of Formula III (carbamoyl-benzyl butyric acid methyl ester) ([4]; pH 3.2, storage time 3 months): 1.00%
Increase of Formula II (carbamimidoyl-benzyl butyric acid) ([4]; pH 3.5, storage time 0 months): 0.12%
Increase of Formula III (carbamoyl-benzyl butyric acid methyl ester) ([4]; pH 3.5, storage time 0 months): 0.81%
Increase of Formula II (carbamimidoyl-benzyl butyric acid) ([4]; pH 3.5, storage time 1 months): 0.27%
Increase of Formula III (carbamoyl-benzyl butyric acid methyl ester) ([4]; pH 3.5, storage time 1 months): 0.91%
Increase of Formula II (carbamimidoyl-benzyl butyric acid) ([4]; pH 3.5, storage time 3 months): 0.55%
Increase of Formula II (carbamimidoyl-benzyl butyric acid) ([4]; pH 3.5, storage time 6 months): 0.99%
Increase of Formula II (carbamimidoyl-benzyl butyric acid) ([4]; pH 3.7, storage time 0 months): 0.11%
Increase of Formula III (carbamoyl-benzyl butyric acid methyl ester) ([4]; pH 3.7, storage time 0 months): 0.87%
Increase of Formula II (carbamimidoyl-benzyl butyric acid) ([4]; pH 3.7, storage time 1 months): 0.22%
Increase of Formula III (carbamoyl-benzyl butyric acid methyl ester) ([4]; pH 3.7, storage time 1 months): 0.96%
Increase of Formula II (carbamimidoyl-benzyl butyric acid) ([4]; pH 3.7, storage time 3 months): 0.42%
Increase of Formula II (carbamimidoyl-benzyl butyric acid) ([4]; pH 3.7, storage time 6 months): 0.72%
Increase of Formula II (carbamimidoyl-benzyl butyric acid) ([4]; pH 4.0, storage time 0 months): 0.12%
Increase of Formula III (carbamoyl-benzyl butyric acid methyl ester) ([4]; pH 4.0, storage time 0 months): 0.95%
Increase of Formula II (carbamimidoyl-benzyl butyric acid) ([4]; pH 4.0, storage time 1 months): 0.18%
Increase of Formula II (carbamimidoyl-benzyl butyric acid) ([4]; pH 4.0, storage time 3 months): 0.32%
Increase of Formula II (carbamimidoyl-benzyl butyric acid) ([4]; pH 4.0, storage time 6 months): 0.52%
Increase of Formula II (carbamimidoyl-benzyl butyric acid) ([4]; pH 4.2, storage time 0 months): 0.13%
Increase of Formula II (carbamimidoyl-benzyl butyric acid) ([4]; pH 4.2, storage time 1 months): 0.18%
Increase of Formula III (carbamoyl-benzyl butyric acid methyl ester) ([4]; pH 4.2, storage time 1 months): 1.20%
Increase of Formula II (carbamimidoyl-benzyl butyric acid) ([4]; pH 4.2, storage time 3 months): 0.27%
Increase of Formula II (carbamimidoyl-benzyl butyric acid) ([4]; pH 4.2, storage time 6 months): 0.43%
Increase of Formula II (carbamimidoyl-benzyl butyric acid) ([4]; pH 4.5, storage time 0 months): 0.15%
Increase of Formula III (carbamoyl-benzyl butyric acid methyl ester) ([4]; pH 4.5, storage time 0 months): 1.40%
Increase of Formula II (carbamimidoyl-benzyl butyric acid) ([4]; pH 4.5, storage time 1 months): 0.20%
Increase of Formula II (carbamimidoyl-benzyl butyric acid) ([4]; pH 4.5, storage time 3 months): 0.30%
Increase of Formula II (carbamimidoyl-benzyl butyric acid) ([4]; pH 4.5, storage time 6 months): 0.44%
Increase of Formula II (carbamimidoyl-benzyl butyric acid) ([4]; pH 4.7, storage time 0 months): 0.20%
Increase of Formula II (carbamimidoyl-benzyl butyric acid) ([4]; pH 4.7, storage time 1 months): 0.25%
Increase of Formula II (carbamimidoyl-benzyl butyric acid) ([4]; pH 4.7, storage time 3 months): 0.36%
Increase of Formula II (carbamimidoyl-benzyl butyric acid) ([4]; pH 4.7, storage time 6 months): 0.52%
efficacy in models of thrombosis (models of thrombosis [5]): highly efficacious
dependence of Formula III level on Otamixaban concentration or vial volume [6]: independent from the concentration of Otamixaban or vial volume
Increase of Formula II (carbamimidoyl-benzyl butyric acid) [7, 8]: 0.10%
Increase of Formula III (carbamoyl-benzyl butyric acid methyl ester) [7, 8]: 0.39%
Increase of Formula II (carbamimidoyl-benzyl butyric acid) [7, 9]: 0.33%
Increase of Formula III (carbamoyl-benzyl butyric acid methyl ester) [7, 9]: 0.71%
Increase of Formula II (carbamimidoyl-benzyl butyric acid) ([7]; pH 2.5, number of autoclaving 2): 0.56%
Increase of Formula III (carbamoyl-benzyl butyric acid methyl ester) ([7]; pH 3.0, number of autoclaving 0): 0.39%
Increase of Formula III (carbamoyl-benzyl butyric acid methyl ester) ([7]; pH 3.0, number of autoclaving 1): 0.74%
Increase of Formula II (carbamimidoyl-benzyl butyric acid) [7, 10]: 0.08%
Increase of Formula III (carbamoyl-benzyl butyric acid methyl ester) [7, 10]: 0.39%
Increase of Formula II (carbamimidoyl-benzyl butyric acid) [7, 11]: 0.15%
Increase of Formula III (carbamoyl-benzyl butyric acid methyl ester) [7, 11]: 0.76%
Increase of Formula II (carbamimidoyl-benzyl butyric acid) ([7]; pH 3.2, number of autoclaving 2): 0.21%
Increase of Formula II (carbamimidoyl-benzyl butyric acid) [7, 12]: 0.27%
Increase of Formula III (carbamoyl-benzyl butyric acid methyl ester) [7, 12]: 1.50%
Increase of Formula II (carbamimidoyl-benzyl butyric acid) [7, 13]: 0.08%
Increase of Formula III (carbamoyl-benzyl butyric acid methyl ester) [7, 13]: 0.39%
Increase of Formula II (carbamimidoyl-benzyl butyric acid) [7, 14]: 0.12%
Increase of Formula III (carbamoyl-benzyl butyric acid methyl ester) [7, 14]: 0.81%
Increase of Formula II (carbamimidoyl-benzyl butyric acid) ([7]; pH 3.5, number of autoclaving 2): 0.17%
Increase of Formula II (carbamimidoyl-benzyl butyric acid) ([7]; pH 3.5, number of autoclaving 3): 0.21%
Increase of Formula II (carbamimidoyl-benzyl butyric acid) [7, 15]: 0.08%
Increase of Formula III (carbamoyl-benzyl butyric acid methyl ester) [7, 15]: 0.39%
Increase of Formula II (carbamimidoyl-benzyl butyric acid) [7, 16]: 0.11% and 0.12%
Increase of Formula III (carbamoyl-benzyl butyric acid methyl ester) [7, 16]: 0.87% and 0.84%
Increase of Formula II (carbamimidoyl-benzyl butyric acid) ([7]; pH 3.7, number of autoclaving 2): 0.16%
Increase of Formula II (carbamimidoyl-benzyl butyric acid) [7, 17]: 0.20% and 0.19%
Increase of Formula III (carbamoyl-benzyl butyric acid methyl ester) [7, 17]: 1.80%
Increase of Formula II (carbamimidoyl-benzyl butyric acid) [7, 18]: 0.08%
Increase of Formula III (carbamoyl-benzyl butyric acid methyl ester) [7, 18]: 0.39%
Increase of Formula II (carbamimidoyl-benzyl butyric acid) [7, 19]: 0.12%
Increase of Formula III (carbamoyl-benzyl butyric acid methyl ester) [7, 19]: 0.95%
Increase of Formula II (carbamimidoyl-benzyl butyric acid) ([7]; pH 4.0, number of autoclaving 2): 0.16%
Increase of Formula II (carbamimidoyl-benzyl butyric acid) ([7]; pH 4.0, number of autoclaving 3): 0.19%
Increase of Formula II (carbamimidoyl-benzyl butyric acid) [7, 20]: 0.07%
Increase of Formula III (carbamoyl-benzyl butyric acid methyl ester) [7, 20]: 0.39%
Increase of Formula II (carbamimidoyl-benzyl butyric acid) ([7]; pH 4.2, number of autoclaving 1): 0.13%
Increase of Formula II (carbamimidoyl-benzyl butyric acid) ([7]; pH 4.2, number of autoclaving 2): 0.18%
Increase of Formula II (carbamimidoyl-benzyl butyric acid) ([7]; pH 4.2, number of autoclaving 3): 0.22%
Increase of Formula II (carbamimidoyl-benzyl butyric acid) [7, 21]: 0.08%
Increase of Formula III (carbamoyl-benzyl butyric acid methyl ester) [7, 21]: 0.39%
Increase of Formula II (carbamimidoyl-benzyl butyric acid) [7, 22]: 0.15%
Increase of Formula III (carbamoyl-benzyl butyric acid methyl ester) [7, 22]: 1.40%
Increase of Formula II (carbamimidoyl-benzyl butyric acid) ([7]; pH 4.5, number of autoclaving 2): 0.24%
Increase of Formula II (carbamimidoyl-benzyl butyric acid) ([7]; pH 4.5, number of autoclaving 3): 0.30%
Increase of Formula II (carbamimidoyl-benzyl butyric acid) [7, 23]: 0.08%
Increase of Formula III (carbamoyl-benzyl butyric acid methyl ester) [7, 23]: 0.39%
Increase of Formula II (carbamimidoyl-benzyl butyric acid) ([7]; pH 4.7, number of autoclaving 1): 0.20%
Increase of Formula II (carbamimidoyl-benzyl butyric acid) [7, 24]: 0.32%
Increase of Formula III (carbamoyl-benzyl butyric acid methyl ester) [7, 24]: 3.20%
Increase of Formula II (carbamimidoyl-benzyl butyric acid) ([7]; pH 4.7, number of autoclaving 3): 0.43%
clinical findings: efficacy, safety, tolerability (acute coronary syndrome): efficacious, safe and well tolerated
